Among the data in ChEMBL document CHEMBL5543086, “Discovery of novel NSAID hybrids as cPLA2/COX-2 dual inhibitors alleviating rheumatoid arthritis via inhibiting p38 MAPK pathway” (Eur J Med Chem, 2024) are Activity values, retold here.

Structures are written as SMILES.

The subject of this data set is RAW264.7. As to the kind of experiment: Cytotoxicity against LPS-induced mouse RAW264.7 cells assessed as reduction in cell viability at 30 uM pretreated for 1 hr followed by LPS addition and measured after 24 hrs by MTT assay. The class given is toxicity, cell-based. As to conditions: raw264.7, 25 h. For orientation: Tetrazolium assays rely on reduction of a dye to a coloured formazan, in cell work by metabolically active cells.
`CCCCCCCCCCCCC/C=C(/OC(=O)C(C)c1ccc(CC(C)C)cc1)C(F)(F)F` (stereo unspecified): the Activity entry is “Non-Toxic”.
Next, `CCCCCCCCCCCCCCCCCCCC/C=C(/OC(=O)[C@@H](C)c1ccc2cc(OC)ccc2c1)C(F)(F)F`: “Non-Toxic”; `CCCCCCCCCCCCCCC/C=C(/OC(=O)C(C)c1ccc(CC(C)C)cc1)C(F)(F)F` (stereo unspecified): “Non-Toxic”.
With `CCCCCCCCCCCCCCCCC/C=C(/OC(=O)C(C)c1ccc(CC(C)C)cc1)C(F)(F)F` (stereo unspecified) the entry was “Non-Toxic”; with `CCCCCCCC/C=C(/OC(=O)C(C)c1ccc(-c2ccccc2)c(F)c1)C(F)(F)F` (stereo unspecified), “Non-Toxic”; with `CCCCCCCC/C=C\CCCCCC/C=C(/OC(=O)c1ccccc1OC(C)=O)C(F)(F)F`, “Non-Toxic”.
With `CCCCCCCC/C=C\CCCCCCCCCC/C=C(/OC(=O)c1ccccc1OC(C)=O)C(F)(F)F` the entry was “Non-Toxic”.
Consider `CCCCCCCCCCCCCCCCCC/C=C(/OC(=O)c1ccccc1OC(C)=O)C(F)(F)F`, for which the Activity result is on record as “Non-Toxic”.
As to `CCCCCC/C=C(/OC(=O)C(C)c1ccc(CC(C)C)cc1)C(F)(F)F` (stereo unspecified), the Activity result is on record as “Non-Toxic”.
With `CCCCCCCC/C=C\CCCCCCCCCC/C=C(/OC(=O)C(C)c1ccc(CC(C)C)cc1)C(F)(F)F` (stereo unspecified) the entry was “Non-Toxic”; with `CCCCCC/C=C(/OC(=O)c1ccccc1OC(C)=O)C(F)(F)F`, “Non-Toxic”; with `CCCCCCCCCCCCCCCCCC/C=C(/OC(=O)C(C)c1ccc(C(=O)c2ccccc2)cc1)C(F)(F)F` (stereo unspecified), “Non-Toxic”.
With `CCCCCCCCCCCCCCCCCCCC/C=C(/OC(=O)c1ccccc1OC(C)=O)C(F)(F)F`, the Activity result is reported as “Non-Toxic”.
Next, `CCCCCCCCCCCCCC/C=C(/OC(=O)C(C)c1ccc(-c2ccccc2)c(F)c1)C(F)(F)F` (stereo unspecified): “Non-Toxic”; `CCCCCCCCCCCCCCCCCCCC/C=C(/OC(=O)C(C)c1ccc(-c2ccccc2)c(F)c1)C(F)(F)F` (stereo unspecified): “Non-Toxic”.
Next, `CCCCCCCCCCCC/C=C(/OC(=O)c1ccccc1OC(C)=O)C(F)(F)F`: “Non-Toxic”; `CCCCCCCC/C=C\CCCCCC/C=C(/OC(=O)C(C)c1ccc(-c2ccccc2)c(F)c1)C(F)(F)F` (stereo unspecified): “Non-Toxic”.
Next, `CCCCCCCCCC/C=C(/OC(=O)C(C)c1ccc(-c2ccccc2)c(F)c1)C(F)(F)F` (stereo unspecified): “Non-Toxic”; `CCCCCCC/C=C(/OC(=O)C(C)c1ccc(-c2ccccc2)c(F)c1)C(F)(F)F` (stereo unspecified): “Non-Toxic”.
With `CCCCC/C=C\C/C=C\CCCCCC/C=C(/OC(=O)C(C)c1ccc(CC(C)C)cc1)C(F)(F)F` (stereo unspecified), the Activity entry is “Non-Toxic”.
Next, `CCCCCCCCCCCCCCCC/C=C(/OC(=O)C(C)c1ccc(-c2ccccc2)c(F)c1)C(F)(F)F` (stereo unspecified): “Non-Toxic”; `CCCCCCCCCCCCCCCC/C=C(/OC(=O)[C@@H](C)c1ccc2cc(OC)ccc2c1)C(F)(F)F`: “Non-Toxic”; `CCCCCCC/C=C(/OC(=O)[C@@H](C)c1ccc2cc(OC)ccc2c1)C(F)(F)F`: “Non-Toxic”.
Next, `C=CCCCCCCC/C=C(/OC(=O)[C@@H](C)c1ccc2cc(OC)ccc2c1)C(F)(F)F`: “Non-Toxic”; `CCCCCCCC/C=C(/OC(=O)[C@@H](C)c1ccc2cc(OC)ccc2c1)C(F)(F)F`: “Non-Toxic”; `CCCCCCCC/C=C(/OC(=O)C(C)c1ccc(CC(C)C)cc1)C(F)(F)F` (stereo unspecified): “Non-Toxic”.
With `CCC/C=C(/OC(=O)C(C)c1ccc(CC(C)C)cc1)C(F)(F)F` (stereo unspecified) the entry was “Non-Toxic”.
Take `CCCCCCCC/C=C\CCCCCC/C=C(/OC(=O)[C@@H](C)c1ccc2cc(OC)ccc2c1)C(F)(F)F`: the Activity result is reported as “Non-Toxic”.
As to `CCCCCCC/C=C(/OC(=O)c1ccccc1OC(C)=O)C(F)(F)F`, the Activity result is recorded as “Non-Toxic”.
Next, `CCCCCCCCCCCCCC/C=C(/OC(=O)C(C)c1ccc(CC(C)C)cc1)C(F)(F)F` (stereo unspecified): “Non-Toxic”; `CCCCCCCCCC/C=C(/OC(=O)c1ccccc1OC(C)=O)C(F)(F)F`: “Non-Toxic”.
